According to publication PMC5789824, “A presumed homologue of the regulatory subunits of eIF2B functions as ribose-1,5-bisphosphate isomerase in Pyrococcus horikoshii OT3” (Scientific Reports, 2018):
Where two headings read alike, the source gives them in different places.

Legend:
[1] = biological target: T1, PH0208-C135A mutant protein (Pyrococcus horikoshii, UniProt O57947, C135A); experiment: biochemical; type: binding, Pyrococcus horikoshii OT3
T1 construct: an N-terminal α-helical domain (residues 1–122) and a C-terminal α-β-α sandwich domain (residues 123–324); made in house; host or cells: Escherichia coli Rosetta (DE3)
T1 sequence (O57947 whole entry C135A, the tested form may be a part): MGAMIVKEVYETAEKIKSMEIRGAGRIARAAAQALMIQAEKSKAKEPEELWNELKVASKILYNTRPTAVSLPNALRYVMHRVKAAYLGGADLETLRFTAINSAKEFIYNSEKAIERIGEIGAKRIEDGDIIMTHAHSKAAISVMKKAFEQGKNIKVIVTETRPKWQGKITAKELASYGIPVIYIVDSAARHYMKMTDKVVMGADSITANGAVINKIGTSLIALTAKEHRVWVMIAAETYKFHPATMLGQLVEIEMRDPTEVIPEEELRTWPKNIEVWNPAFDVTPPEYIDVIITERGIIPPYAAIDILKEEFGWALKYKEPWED
Experimental: Henceforth, Cys135 was mutated to alanine (PH0208-C135A) to understand its role in ligand (R15P/RuBP) binding.
(§1) ITC experiments of mutant proteins (PH0208-C135S, PH0208-C135A and PH0208-D204N) with the substrate (R15P) and the product (RuBP) molecules were measured at 25 °C using MicroCal iTC200. Before ITC experiments, the proteins were dialyzed extensively in buffer (20 mM Tris-HCl pH 8.0 and 150 mM KCl) and the equilibrated buffer was subsequently used to prepare ligand solutions to minimize the heat of dilution effects. Each titration consisted of a preliminary injection of 0.4 μl of 7.5–8.0 mM of R15P and RuBP followed by 24 injections of 1.2 μl (spacing 120 s) into the sample cell filled with protein at a final concentration of 75–80 μM. During titration, the syringe rotated at a speed of 450 rpm to facilitate adequate mixing of the reactants. Data were analyzed using MicroCal ORIGIN software and baselines were subtracted from data to obtain accurate heat exchanges.

[2] = biological target: T2, PH0208-C135S mutant protein (Pyrococcus horikoshii, UniProt O57947, C135S); experiment: biochemical; type: binding, Pyrococcus horikoshii OT3
T2 construct: an N-terminal α-helical domain (residues 1–122) and a C-terminal α-β-α sandwich domain (residues 123–324); made in house; host or cells: Escherichia coli Rosetta (DE3)
T2 sequence (O57947 whole entry C135S, the tested form may be a part): as the sequence (O57947 whole entry C135A, the tested form may be a part) above, with A135S counted along it
Experimental: (§2) To determine the binding affinity of the substrate (R15P) and the product (RuBP) to the protein PH0208, isothermal titration calorimetry (ITC) experiments were performed. Since binding of the substrate to the PH0208-WT protein triggers a conformational change along with the formation of the product, the heat change measured during the ITC experiment would reflect the sum of heat generated and absorbed during each event. As a result, the binding affinity (Kd) of PH0208 and R15P/RuBP obtained would be delusional. Therefore, binding affinity was studied using the mutant proteins, PH0208-C135S and PH0208-D204N in which case the heat change would be solely due to ligand binding.
as §1

[3] = biological target: T3, PH0208-D204N mutant protein (Pyrococcus horikoshii, UniProt O57947, D204N); experiment: biochemical; type: binding, Pyrococcus horikoshii OT3
T3 construct: an N-terminal α-helical domain (residues 1–122) and a C-terminal α-β-α sandwich domain (residues 123–324); made in house; host or cells: Escherichia coli Rosetta (DE3)
T3 sequence (O57947 whole entry D204N, the tested form may be a part): as the sequence (O57947 whole entry C135A, the tested form may be a part) above, with A135C, D204N counted along it
Experimental: as §2, §1

[4] = test system: ribose-1,5-bisphosphate isomerase (R15Pi); design: method as in PMID 23065974; conditions: result in words; cited from earlier work
[5] = biological target: T4, PH0208 protein (PH0208-WT, PH0208-C135S, PH0208-D204N) (Pyrococcus horikoshii, UniProt O57947, M1V); experiment: Co-crystallization or soaking with ribonucleotides (crystal structure complexes); type: binding, Pyrococcus horikoshii OT3; conditions: for binding of ribonucleotide seen in crystal structure (electron density): co-crystallization or soaking of PH0208-WT, -C135S, -D204N; for preferred molecule at the 'AMP binding site': crystallized in presence of both AMP (1.5 mM) and GMP (4.5 mM)
T4 construct: an N-terminal α-helical domain (residues 1–122) and a C-terminal α-β-α sandwich domain (residues 123–324); made in house; host or cells: Escherichia coli Rosetta (DE3)
T4 sequence (O57947 whole entry M1V, the tested form may be a part): as the sequence (O57947 whole entry C135A, the tested form may be a part) above, with M1V, A135C counted along it
Experimental: To identify the binding site of ribonucleotides, either co-crystallization or soaking of PH0208-WT, PH0208-C135S and PH0208-D204N proteins with AMP, GMP, CMP and TMP was performed. […] The binding site of AMP lies at the interface of three monomers (chain A, B and D) of the hexameric protein (Fig. 4a). The side chains of Arg124 and Asp290 of chain A undergoes a shift towards AMP to form hydrogen bond with the O2′ and O3′ oxygen atoms of the ribose sugar (Fig. 4b). Another two residues of chain A, Arg229 and Trp231 are involved in interacting with the phosphate groups of the AMP molecule. The side chain atoms of Asn209 and the backbone atoms of Val251 of chain B forms hydrogen bond with the oxygen (O2′ and O3′) atoms of the ribose sugar and the nitrogen (N1 and N6) atom of the adenosine base ring, respectively. Along with chain A and chain B, AMP also binds to a third protomer of the hexameric protein through interactions involving the side chain atoms of Arg190 and Lys194 of chain D (Fig. 4c). Thus, one AMP molecule positions itself to hold three protomers of the hexamer. All the amino acid residues of PH0208 protein forming hydrogen bond with AMP are found to be absolutely conserved in R15Pi enzymes. […] In case of both the mutants, PH0208-C135S and PH0208-D204N, AMP occupies a similar position to that of PH0208-WT protein with the major interactions arising from the three subunits of the hexamer. Similar to PH0208-WT, the adenosine base ring interacts with Val251 of chain B, the oxygen atoms of ribose sugar interacts with Arg124 & Asp290 of chain A and Asn209 of chain B while the phosphate group forms hydrogen bond with Arg229 & Trp231 of chain A and Arg190 & Lys194 of chain D of the mutant proteins (Fig. 4d–f).
To obtain crystals of PH0208-WT, an initial screening was performed by mixing 2 μl of protein and 2 μl of crystallization condition available in Crystal Screen, Crystal Screen 2 and PEG/Ion kits from Hampton research at 277 K and 293 K by the microbatch-under-oil technique. Further refinement of one of the conditions containing 2.0 M NaCl and 10% (w/v) PEG 6000 using hanging-drop vapor-diffusion technique in 24-well plate was performed to obtain better crystals. However, crystals of the apo form of PH0208-WT protein diffracted very poorly. To obtain diffraction quality crystals, the substrate (R15P) was added to the crystallization drop which was then equilibrated against 500 μl of 0.7 M NaCl and 3% PEG 6000. Yet, the crystals formed diffracted to a resolution of ~7 Å, only. […] For co-crystallization of PH0208-WT, PH0208-C135S and PH0208-D204N with different ligands, the final protein concentration was kept at 9.5, 9.0 and 7.0 mg ml^−1, respectively in 20 mM Tris-HCl pH 8.0 and 150 mM KCl. The final concentration of R15P in the crystallization drops were 8.33–9 mM while that of AMP, GMP, CMP and TMP were 1.66, 4.5 & 9, 1.66 and 9 mM, respectively. In case of ligand soaking, the concentration of AMP was kept at 5 mM. For obtaining the crystals of ligand bound PH0208-C135S and PH0208-D204N complexes, the reservoir buffer was further supplemented with 0.1–0.3% of low melting (LM) agarose. All the crystals were obtained in hanging-drop vapor-diffusion method at 20 °C within a period of 2–7 days.

O=C(COP(=O)(O)O)[C@H](O)[C@H](O)COP(=O)(O)O [RuBP, ribulose-1,5-bisphosphate]
Kd [1]: 309 µM | Ka ([1]; ITC, 25 °C): 3.23 × 10^3 ± 299 M^−1 | T∆S ([1]; ITC, 25 °C): -4.14 kcal/mol | ∆G ([1]; ITC, 25 °C): -4.8 kcal/mol | ∆H ([1]; ITC, 25 °C): -8.94 ± 0.40 kcal/mol | Kd [2]: 7.5 µM | Ka ([2]; ITC, 25 °C): 133000 ± 72100 M⁻¹ | T∆S ([2]; ITC, 25 °C): 2.24 kcal/mol | ∆G ([2]; ITC, 25 °C): -6.98 kcal/mol | ∆H ([2]; ITC, 25 °C): -4.74 ± 0.39 kcal/mol | Kd [3]: 7.2 µM | Ka ([3]; ITC, 25 °C): 139000 ± 12000 M⁻¹ | T∆S ([3]; ITC, 25 °C): 4.05 kcal/mol | ∆G ([3]; ITC, 25 °C): -7.0 kcal/mol | ∆H ([3]; ITC, 25 °C): -2.95 ± 0.06 kcal/mol

Nc1nc2c(ncn2[C@@H]2O[C@H](COP(=O)(O)O)[C@@H](O)[C@H]2O)c(=O)[nH]1 [GMP, guanosine 5′-monophosphate]
effect on enzymatic activity / catalytic efficiency of R15Pi [4]: elevates the activity of R15Pi, though to a lesser extent as compared to AMP | binding of ribonucleotide seen in crystal structure (electron density) [5]: bound to the proteins | preferred molecule at the 'AMP binding site' [5]: GMP binds to the ‘GMP binding loop’

C[S+](CC[C@H](N)C(=O)[O-])C[C@H]1O[C@@H](n2cnc3c(N)ncnc32)[C@H](O)[C@@H]1O (stereo partly shown) [SAM, S-adenosyl methionine]
effect on enzymatic activity / catalytic efficiency of R15Pi [4]: inability

Nc1ccn([C@@H]2O[C@H](COP(=O)(O)O)[C@@H](O)[C@H]2O)c(=O)n1 [CMP, cytosine 5′-monophosphate]
effect on enzymatic activity / catalytic efficiency of R15Pi [4]: neither cytosine 5′-monophosphate (CMP) nor thymidine 5′-monophospahte (TMP) possesses the ability to increase the enzymatic activity | binding of ribonucleotide seen in crystal structure (electron density) [5]: no electron density

Nc1ncnc2c1ncn2[C@@H]1O[C@H](CSCC[C@H](N)C(=O)O)[C@@H](O)[C@H]1O [SAH, S-adenosyl homocysteine]
effect on enzymatic activity / catalytic efficiency of R15Pi [4]: inability

O=P(O)(O)OC[C@H]1OC(OP(=O)(O)O)[C@H](O)[C@@H]1O (stereo partly shown) [R15P, ribose-1,5-bisphosphate]
interaction with PH0208-C135A (ITC) ([1]; ITC, 25 °C, result in words): did not show any interaction | Ka ([2]; ITC, 25 °C): 72000 ± 7130 M⁻¹ | T∆S ([2]; ITC, 25 °C): 7.03 kcal/mol | ∆G ([2]; ITC, 25 °C): -6.6 kcal/mol | ∆H ([2]; ITC, 25 °C): 0.403 ± 0.013 kcal/mol | N ([2]; ITC, 25 °C, single-site model, '(fixed)' = fixed in fit): 1.17 ± 0.03 | Kd ([2]; ITC, 25 °C, read-out: Kd): 13.8 µM | Ka ([3]; ITC, 25 °C): 99100 ± 2630 M⁻¹ | T∆S ([3]; ITC, 25 °C): 7.77 kcal/mol | ∆G ([3]; ITC, 25 °C): -6.8 kcal/mol | ∆H ([3]; ITC, 25 °C): 0.981 ± 0.049 kcal/mol | Kd ([3]; ITC, 25 °C, read-out: Kd): 10 µM

Nc1ncnc2c1ncn2[C@@H]1O[C@H](COP(=O)(O)OP(=O)(O)OP(=O)(O)O)[C@@H](O)[C@H]1O [ATP, adenosine 5ʹ-triphosphate]
effect on enzymatic activity / catalytic efficiency of R15Pi [4]: inability

Cc1cn([C@H]2C[C@H](O)[C@@H](COP(=O)(O)O)O2)c(=O)[nH]c1=O [TMP, thymidine 5′-monophospahte]
effect on enzymatic activity / catalytic efficiency of R15Pi [4]: neither cytosine 5′-monophosphate (CMP) nor thymidine 5′-monophospahte (TMP) possesses the ability to increase the enzymatic activity | binding of ribonucleotide seen in crystal structure (electron density) [5]: no electron density

Nc1ncnc2c1ncn2[C@@H]1O[C@H](COP(=O)(O)O)[C@@H](O)[C@H]1O [AMP, adenosine 5′-monophosphate]
effect on enzymatic activity / catalytic efficiency of R15Pi [4]: activator of R15Pi | binding of ribonucleotide seen in crystal structure (electron density) [5]: bound to the proteins | preferred molecule at the 'AMP binding site' [5]: AMP outcompete GMP and binds to the ‘AMP binding site’
